US8178668B2, “2-aminopyridine kinase inhibitors” (OSI Pharmaceuticals, LLC, priority 2008, dated 2012)

Tests used:
RON (human) = RON (human) (Homo sapiens, UniProt Q04912); assay: RON kinase AlphaScreen assay (Km of ATP); assay type: biochemical; settings: ATP at Km; at least duplicate experiments
Procedure, shortened: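 AlphaScreen with PT66 donor/acceptor beads, read after 1 h, detected phosphorylation of biotinylated poly(Glu,Tyr) by human RON. Enzyme-started reactions ran 30 min at room temperature with ATP at Km. Buffer was HEPES pH 7.4 with MgCl2, glycerol, vanadate and 1% DMSO.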

MET (human) = MET (human) (Homo sapiens, UniProt P08581); assay: MET kinase AlphaScreen assay (Km of ATP); assay type: biochemical; settings: ATP at Km; at least duplicate experiments
Procedure, shortened: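 AlphaScreen detection with PT66 beads (1 h) follows a 60 min room-temperature MET reaction. Substrate is 200 ng/μL biotinylated poly(Glu,Tyr), with ATP set at an enzyme-optimized concentration. Buffer is HEPES pH 7.4 with MgCl2, MnCl2 and 0.334 mM vanadate, compounds at 1% DMSO.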

Sequence of MET (human) (P08581 25-1390): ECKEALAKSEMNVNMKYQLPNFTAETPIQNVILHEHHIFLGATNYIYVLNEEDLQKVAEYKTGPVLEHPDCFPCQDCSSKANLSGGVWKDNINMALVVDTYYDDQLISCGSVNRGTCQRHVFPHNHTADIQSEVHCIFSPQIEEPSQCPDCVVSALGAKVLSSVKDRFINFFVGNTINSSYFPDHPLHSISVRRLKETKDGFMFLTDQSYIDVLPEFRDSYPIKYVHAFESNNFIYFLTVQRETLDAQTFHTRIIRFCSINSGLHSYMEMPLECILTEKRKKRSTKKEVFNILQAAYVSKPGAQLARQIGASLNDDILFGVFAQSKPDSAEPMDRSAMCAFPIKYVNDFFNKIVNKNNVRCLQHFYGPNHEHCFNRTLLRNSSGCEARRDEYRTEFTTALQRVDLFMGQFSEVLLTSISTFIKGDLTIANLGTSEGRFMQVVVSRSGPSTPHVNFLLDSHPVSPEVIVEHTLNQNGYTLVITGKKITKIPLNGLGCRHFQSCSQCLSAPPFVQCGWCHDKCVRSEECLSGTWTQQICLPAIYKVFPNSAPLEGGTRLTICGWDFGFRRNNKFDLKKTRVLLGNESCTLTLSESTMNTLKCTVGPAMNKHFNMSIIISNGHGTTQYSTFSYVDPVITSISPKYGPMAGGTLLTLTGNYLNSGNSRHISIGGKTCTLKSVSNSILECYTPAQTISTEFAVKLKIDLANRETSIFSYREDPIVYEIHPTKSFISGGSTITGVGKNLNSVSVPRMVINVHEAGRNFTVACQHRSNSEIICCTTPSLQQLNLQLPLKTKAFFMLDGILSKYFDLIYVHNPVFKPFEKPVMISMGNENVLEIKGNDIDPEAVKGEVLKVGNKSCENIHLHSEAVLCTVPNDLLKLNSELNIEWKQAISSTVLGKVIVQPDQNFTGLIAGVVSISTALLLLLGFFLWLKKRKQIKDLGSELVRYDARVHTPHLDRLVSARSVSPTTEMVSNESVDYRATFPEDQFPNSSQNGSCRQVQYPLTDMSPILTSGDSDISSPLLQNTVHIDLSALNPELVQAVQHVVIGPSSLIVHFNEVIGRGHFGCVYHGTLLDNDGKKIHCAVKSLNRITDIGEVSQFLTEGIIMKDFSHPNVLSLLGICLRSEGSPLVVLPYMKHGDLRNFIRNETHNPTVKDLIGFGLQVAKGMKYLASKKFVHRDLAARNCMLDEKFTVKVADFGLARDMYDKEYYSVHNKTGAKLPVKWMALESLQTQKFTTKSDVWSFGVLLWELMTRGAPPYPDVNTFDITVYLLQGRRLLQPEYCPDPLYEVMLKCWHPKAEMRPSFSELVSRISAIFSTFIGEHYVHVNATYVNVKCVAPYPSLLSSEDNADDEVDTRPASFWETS
Sequence of RON (human) (Q04912 25-1400): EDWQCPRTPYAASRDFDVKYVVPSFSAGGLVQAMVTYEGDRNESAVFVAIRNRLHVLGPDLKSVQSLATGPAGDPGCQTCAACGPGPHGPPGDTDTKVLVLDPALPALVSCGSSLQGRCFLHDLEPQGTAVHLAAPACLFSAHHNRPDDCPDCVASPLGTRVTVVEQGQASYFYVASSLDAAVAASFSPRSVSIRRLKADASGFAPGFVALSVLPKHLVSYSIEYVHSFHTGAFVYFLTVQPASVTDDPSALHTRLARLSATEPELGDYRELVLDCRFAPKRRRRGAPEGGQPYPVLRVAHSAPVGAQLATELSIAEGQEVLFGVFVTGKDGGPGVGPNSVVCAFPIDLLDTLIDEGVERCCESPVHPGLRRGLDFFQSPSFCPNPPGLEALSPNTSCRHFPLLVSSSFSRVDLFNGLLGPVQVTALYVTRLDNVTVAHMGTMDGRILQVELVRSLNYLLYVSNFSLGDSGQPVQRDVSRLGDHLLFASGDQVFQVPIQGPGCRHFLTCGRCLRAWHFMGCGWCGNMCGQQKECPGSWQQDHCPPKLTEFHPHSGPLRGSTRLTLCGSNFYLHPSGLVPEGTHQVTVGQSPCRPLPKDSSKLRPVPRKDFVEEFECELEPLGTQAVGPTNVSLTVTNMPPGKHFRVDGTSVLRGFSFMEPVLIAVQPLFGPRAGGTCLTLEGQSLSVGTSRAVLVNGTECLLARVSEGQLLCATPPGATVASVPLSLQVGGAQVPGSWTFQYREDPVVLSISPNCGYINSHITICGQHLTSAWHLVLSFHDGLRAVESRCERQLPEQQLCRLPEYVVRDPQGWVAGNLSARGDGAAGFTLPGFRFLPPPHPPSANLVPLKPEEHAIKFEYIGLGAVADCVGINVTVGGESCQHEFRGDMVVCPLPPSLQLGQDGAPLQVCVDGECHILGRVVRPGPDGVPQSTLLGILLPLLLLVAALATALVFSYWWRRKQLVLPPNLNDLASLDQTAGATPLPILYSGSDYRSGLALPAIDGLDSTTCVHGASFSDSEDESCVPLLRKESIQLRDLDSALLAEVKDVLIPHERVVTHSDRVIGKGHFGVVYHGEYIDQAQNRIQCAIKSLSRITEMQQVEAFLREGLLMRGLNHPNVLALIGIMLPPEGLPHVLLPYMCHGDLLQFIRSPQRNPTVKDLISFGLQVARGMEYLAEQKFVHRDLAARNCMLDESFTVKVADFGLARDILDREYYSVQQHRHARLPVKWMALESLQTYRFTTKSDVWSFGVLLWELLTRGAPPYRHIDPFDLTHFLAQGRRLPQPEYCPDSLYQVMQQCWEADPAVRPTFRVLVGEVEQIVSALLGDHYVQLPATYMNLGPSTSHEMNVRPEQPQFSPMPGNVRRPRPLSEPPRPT

SMILES	IC50 (RON (human))	IC50 (MET (human))
Nc1ncc(-c2cnn(C3CCNCC3)c2)cc1-c1nc2cccc(Cl)c2s1 [Example 259, 3-(7-Chlorobenzothiazol-2-yl)-5-(1-piperidin-4-yl-1H-pyrazol-4-yl)-pyridin-2-ylamine]	≤ 100 nM	≤ 100 nM
Nc1ncc(-c2cnn(C3CCNCC3)c2)cc1-c1nc2cccc(C(F)(F)F)c2s1 [Example 260, 5-(1-Piperidin-4-yl-1H-pyrazol-4-yl)-3-(7-trifluoromethylbenzothiazol-2-yl)-pyridin-2-ylamine]	100 to 1000 nM	100 to 1000 nM
Nc1ncc(-c2cnn(C3CCNCC3)c2)cc1-c1nc2cc(C(F)(F)F)ccc2s1 [Example 261, 5-(1-Piperidin-4-yl-1H-pyrazol-4-yl)-3-(5-trifluoromethylbenzothiazol-2-yl)-pyridin-2-ylamine]	100 to 1000 nM	100 to 1000 nM
Nc1ncc(-c2cnn(C3CCNCC3)c2)cc1-c1nc2c(C(F)(F)F)cccc2s1 [Example 262, 5-(1-Piperidin-4-yl-1H-pyrazol-4-yl)-3-(4-trifluoromethylbenzothiazol-2-yl)-pyridin-2-ylamine]	100 to 1000 nM	100 to 1000 nM
Cc1cccc2nc(-c3cc(-c4cnn(C5CCNCC5)c4)cnc3N)sc12 [Example 263, 3-(7-Methylbenzothiazol-2-yl)-5-(1-piperidin-4-yl-1H-pyrazol-4-yl)-pyridin-2-ylamine]	≤ 100 nM	≤ 100 nM
COc1cccc2nc(-c3cc(-c4cnn(C5CCNCC5)c4)cnc3N)sc12 [Example 264, 3-(7-Methoxybenzothiazol-2-yl)-5-(1-piperidin-4-yl-1H-pyrazol-4-yl)-pyridin-2-ylamine]	100 to 1000 nM	≤ 100 nM
Nc1ncc(-c2cnn(C3CCNCC3)c2)cc1-c1nc2c(Br)cccc2s1 [Example 265, 3-(4-Bromobenzothiazol-2-yl)-5-(1-piperidin-4-yl-1H-pyrazol-4-yl)-pyridin-2-ylamine]	100 to 1000 nM	≤ 100 nM
Nc1ncc(-c2cnn(C3CCNCC3)c2)cc1-c1nc2ccc(OC(F)(F)F)cc2s1 [Example 266, 5-(1-Piperidin-4-yl-1H-pyrazol-4-yl)-3-(6-trifluoromethoxybenzothiazol-2-yl)-pyridin-2-ylamine]	1000 to 20000 nM	1000 to 20000 nM
N#Cc1ccc2sc(-c3cc(-c4cnn(C5CCNCC5)c4)cnc3N)nc2c1 [Example 267, 2-[2-Amino-5-(1-piperidin-4-yl-1H-pyrazol-4-yl)-pyridin-3-yl]-benzothiazole-5-carbonitrile]	≤ 100 nM	≤ 100 nM
N#Cc1ccc2nc(-c3cc(-c4cnn(C5CCNCC5)c4)cnc3N)sc2c1 [Example 268, 2-[2-Amino-5-(1-piperidin-4-yl-1H-pyrazol-4-yl)-pyridin-3-yl]-benzothiazole-6-carbonitrile]	100 to 1000 nM	100 to 1000 nM
Nc1ncc(-c2cnn(C3CCNCC3)c2)cc1-c1nc2c(C(F)(F)F)ccc(F)c2s1 [Example 269, 3-(7-Fluoro-4-trifluoromethylbenzothiazol-2-yl)-5-(1-piperidin-4-yl-1H-pyrazol-4-yl)-pyridin-2-ylamine]	100 to 1000 nM	100 to 1000 nM
Nc1ncc(-c2cnn(C3CCNCC3)c2)cc1-c1nc2cccc(F)c2s1 [Example 270, 3-(7-Fluorobenzothiazol-2-yl)-5-(1-piperidin-4-yl-1H-pyrazol-4-yl)-pyridin-2-ylamine]	100 to 1000 nM	100 to 1000 nM
COc1ccc2sc(-c3cc(-c4cnn(C5CCNCC5)c4)cnc3N)nc2c1 [Example 271, 3-(5-Methoxybenzothiazol-2-yl)-5-(1-piperidin-4-yl-1H-pyrazol-4-yl)-pyridin-2-ylamine]	100 to 1000 nM	100 to 1000 nM
Cc1ccc2sc(-c3cc(-c4cnn(C5CCNCC5)c4)cnc3N)nc2c1 [Example 272, 3-(5-Methylbenzothiazol-2-yl)-5-(1-piperidin-4-yl-1H-pyrazol-4-yl)-pyridin-2-ylamine]	100 to 1000 nM	100 to 1000 nM
Nc1ncc(-c2cnn(C3CCNCC3)c2)cc1-c1nc2cccc(Br)c2s1 [Example 273, 3-(7-Bromobenzothiazol-2-yl)-5-(1-piperidin-4-yl-1H-pyrazol-4-yl)-pyridin-2-ylamine]	≤ 100 nM	≤ 100 nM
Nc1ncc(-c2cnn(C3CCNCC3)c2)cc1-c1nc2c(F)c(F)ccc2s1 [Example 274, 3-(4,5-Difluorobenzothiazol-2-yl)-5-(1-piperidin-4-yl-1H-pyrazol-4-yl)-pyridin-2-ylamine]	100 to 1000 nM	≤ 100 nM
N#Cc1cccc2nc(-c3cc(-c4cnn(C5CCNCC5)c4)cnc3N)sc12 [Example 275, 2-[2-Amino-5-(1-piperidin-4-yl-1H-pyrazol-4-yl)-pyridin-3-yl]-benzothiazole-7-carbonitrile]	100 to 1000 nM	100 to 1000 nM

SMILES	IC50 (RON (human))	IC50 (MET (human))
Nc1ncc(-c2cnn(C3CCNCC3)c2)cc1-c1nc2cc(Br)ccc2s1 [Example 276, 3-(5-Bromobenzothiazol-2-yl)-5-(1-piperidin-4-yl-1H-pyrazol-4-yl)-pyridin-2-ylamine]	100 to 1000 nM	100 to 1000 nM
COc1cccc2sc(-c3cc(-c4cnn(C5CCNCC5)c4)cnc3N)nc12 [Example 277, 3-(4-Methoxybenzothiazol-2-yl)-5-(1-piperidin-4-yl-1H-pyrazol-4-yl)-pyridin-2-ylamine]	100 to 1000 nM	100 to 1000 nM
Nc1ncc(-c2cnn(C3CCNCC3)c2)cc1-c1nc2c(Cl)cccc2s1 [Example 278, 3-(4-Chlorobenzothiazol-2-yl)-5-(1-piperidin-4-yl-1H-pyrazol-4-yl)-pyridin-2-ylamine]	100 to 1000 nM	≤ 100 nM
Nc1ncc(-c2cnn(C3CCNCC3)c2)cc1-c1nc2ccc(C(F)(F)F)cc2s1 [Example 279, 5-(1-Piperidin-4-yl-1H-pyrazol-4-yl)-3-(6-trifluoromethylbenzothiazol-2-yl)-pyridin-2-ylamine]	100 to 1000 nM	100 to 1000 nM
Cc1ccc(C(F)(F)F)c2nc(-c3cc(-c4cnn(C5CCNCC5)c4)cnc3N)sc12 [Example 280, 3-(7-Methyl-4-trifluoromethylbenzothiazol-2-yl)-5-(1-piperidin-4-yl-1H-pyrazol-4-yl)-pyridin-2-ylamine]	100 to 1000 nM	100 to 1000 nM
Nc1ncc(-c2cnn(C3CCNCC3)c2)cc1-c1nc2cc(OC(F)(F)F)ccc2s1 [Example 281, 5-(1-Piperidin-4-yl-1H-pyrazol-4-yl)-3-(5-trifluoromethoxybenzothiazol-2-yl)-pyridin-2-ylamine]	100 to 1000 nM	100 to 1000 nM
Nc1ncc(-c2cnn(C3CCNCC3)c2)cc1-c1nc2c(C(F)(F)F)ccc(Cl)c2s1 [Example 282, 3-(7-Chloro-4-trifluoromethylbenzothiazol-2-yl)-5-(1-piperidin-4-yl-1H-pyrazol-4-yl)-pyridin-2-ylamine]	100 to 1000 nM	100 to 1000 nM
Nc1ncc(-c2cnn(C3CCNCC3)c2)cc1-c1nc2cc(F)ccc2s1 [Example 283, 3-(5-Fluorobenzothiazol-2-yl)-5-(1-piperidin-4-yl-1H-pyrazol-4-yl)-pyridin-2-ylamine]	≤ 100 nM	≤ 100 nM
N#Cc1cccc2sc(-c3cc(-c4cnn(C5CCNCC5)c4)cnc3N)nc12 [Example 284, 2-[2-Amino-5-(1-piperidin-4-yl-1H-pyrazol-4-yl)-pyridin-3-yl]-benzothiazole-4-carbonitrile]	100 to 1000 nM	100 to 1000 nM
Nc1ncc(-c2cnn(C3CCNCC3)c2)cc1-c1nc2c(OC(F)(F)F)cccc2s1 [Example 285, 5-(1-Piperidin-4-yl-1H-pyrazol-4-yl)-3-(4-trifluoromethoxybenzothiazol-2-yl)-pyridin-2-ylamine]	1000 to 20000 nM	100 to 1000 nM
Nc1ncc(-c2cnn(C3CCNCC3)c2)cc1-c1nc2c(C(F)(F)F)c(F)ccc2s1 [Example 286, 3-(5-Fluoro-4-trifluoromethylbenzothiazol-2-yl)-5-(1-piperidin-4-yl-1H-pyrazol-4-yl)-pyridin-2-ylamine]	100 to 1000 nM	100 to 1000 nM
Nc1ncc(-c2cnn(C3CCNCC3)c2)cc1-c1nc2c(Br)cc(OC(F)(F)F)cc2s1 [Example 287, 3-(4-Bromo-6-trifluoromethoxybenzothiazol-2-yl)-5-(1-piperidin-4-yl-1H-pyrazol-4-yl)-pyridin-2-ylamine]	100 to 1000 nM	1000 to 20000 nM
Nc1ncc(-c2cnn(CCC(=O)N3CCCCC3)c2)cc1-c1nc2ccccc2s1 [Example 288, 3-[4-(6-Amino-5-benzothiazol-2-ylpyridin-3-yl)-pyrazol-1-yl]-1-piperidin-1-ylpropan-1-one]	> 20000 nM	100 to 1000 nM
Nc1ncc(-c2cnn(CCC(=O)N3CCC(O)C3)c2)cc1-c1nc2ccccc2s1 (centres unmarked) [Example 289, 3-[4-(6-Amino-5-benzothiazol-2-ylpyridin-3-yl)-pyrazol-1-yl]-1-(3-hydroxypyrrolidin-1-yl)-propan-1-one]	1000 to 20000 nM	100 to 1000 nM
Nc1ncc(-c2cnn(CCC(=O)N3CCC(O)CC3)c2)cc1-c1nc2ccccc2s1 [Example 290, 3-[4-(6-Amino-5-benzothiazol-2-ylpyridin-3-yl)-pyrazol-1-yl]-1-(4-hydroxypiperidin-1-yl)-propan-1-one]	1000 to 20000 nM	100 to 1000 nM
Nc1ncc(-c2cnn(CCC(=O)N3CCOCC3)c2)cc1-c1nc2ccccc2s1 [Example 291, 3-[4-(6-Amino-5-benzothiazol-2-ylpyridin-3-yl)-pyrazol-1-yl]-1-morpholin-4-ylpropan-1-one]	> 20000 nM	1000 to 20000 nM
COCCNC(=O)CCn1cc(-c2cnc(N)c(-c3nc4ccccc4s3)c2)cn1 [Example 292, 3-[4-(6-Amino-5-benzothiazol-2-ylpyridin-3-yl)-pyrazol-1-yl]-N-(2-methoxyethyl)-propionamide]	> 20000 nM	1000 to 20000 nM
